Measured values as given in US12409112B2, “Pressurized nanoemulsion” (Biofrontera Bioscience GmbH, priority 2023, dated 2025).

Columns and labels:
[1] = TC content over storage time in BF220 with PX=4%; format: physicochemical; settings: BF220 with PX=4% and 0.1% TC
Description: Nanoemulsion formulations BF220 TC=0.1% glass and BF220 TC=0.1% foam were prepared as described in Example 6. The nanoemulsion formulations were stored at 2-8° C. The content of TC was determined at 0 (starting point) and various time points during the 36 months storage period.

[2] = cited from earlier work
[3] = room temperature; cited from earlier work
[4] = ALA content over storage time in BF200 with PX=2%; format: physicochemical; settings: BF200 with PX=2% and 3% ALA
Description: Nanoemulsion formulations BF200 PX=2% glass and BF200 PX=2% foam were prepared as described in Example 5. The nanoemulsion formulations were stored at 25° C. and 2-8° C. The content of ALA was determined at 0 (starting point) and various time points during the 36 months storage period.

Structure (SMILES)	Preservation of API content, pressurized cans versus conventional storing units (glass vials) ([1]; 2-8° C.)	TC content ([1]; after 36 months storage at 2-8° C.)	octanol-water partition coefficient (log P) [2]	Stability in aqueous formulations [3]	Preservation of API content, pressurized cans versus conventional storing units (glass vials) ([4]; 25° C. and 2-8° C., all conditions)	ALA content ([4]; after 36 months storage at 2-25° C.)
C=CC[C@@H]1/C=C(\C)C[C@H](C)C[C@H](OC)[C@H]2O[C@@](O)(C(=O)C(=O)N3CCCC[C@H]3C(=O)O[C@H](/C(C)=C/[C@@H]3CC[C@@H](O)[C@H](OC)C3)[C@H](C)[C@@H](O)CC1=O)[C@H](C)C[C@@H]2OC [TC, Tacrolimus]	better	at least 90%	> 3	approx. 90 days	–	–
NCC(=O)CCC(=O)O [ALA, 5-aminolevulinic acid]	–	–	–	–	better	at least 90%
